Assay results from patent US20260070945A1, “MACROCYCLIC IMMUNOMODULATORS” (Bristol-Myers Squibb Company, priority 2022, published 2026).
Where a SMILES comes first, the peptide text is derived from it. Bridges are numbered along the chain shown (N, C = ends). [ ]: non-standard residue; d: D form. The star is where a group is joined. Phe(4-COOH) = N[C@@H](Cc1ccc(C(=O)O)cc1)C(=O)O; Bip = N[C@@H](Cc1ccc(-c2ccccc2)cc1)C(=O)O; hArg = N=C(N)NCCCC[C@H](N)C(=O)O; hhGln = NC(=O)CCCC[C@H](N)C(=O)O; Cha = N[C@@H](CC1CCCCC1)C(=O)O; Cit = NC(=O)NCCC[C@H](N)C(=O)O; 12Ado = NCCCCCCCCCCCC(=O)O; Carboxymethyl = O=C(O)C*; NMeA = CN[C@@H](C)C(=O)O; Orn = NCCC[C@H](N)C(=O)O; Aun = NCCCCCCCCCCC(=O)O; Dab = NCC[C@H](N)C(=O)O; Abu = CC[C@H](N)C(=O)O; Dap = NC[C@H](N)C(=O)O; AEEA = NCCOCCOCC(=O)O

target: T1, PD-1/PD-L1 interaction (PE-labeled human PD-L1-Ig binding to Jurkat cell line over-expressing human PD-1) (Homo sapiens, UniProt Q15116); experiment: Jurkat-PD-1 Cell Binding High-Content Screening Assay (CBA); settings: Jurkat-hPD-1 cells, PE-labeled PD-L1-Ig 20 nM final; read-out: Jurkat HPD1 PDL1 IC50
T1 construct: expressed in transfected cells; host or cells: Jurkat
In short: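 Compound is added first to the PD-1-expressing Jurkat cells and held 2 h at 37 °C in serum-containing DMEM. The fluorescent PD-L1 fusion follows at 20 nM final for 1 h. Fixed, Hoechst-stained cells are then imaged for bound label.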

T1 sequence (Q15116 25-288): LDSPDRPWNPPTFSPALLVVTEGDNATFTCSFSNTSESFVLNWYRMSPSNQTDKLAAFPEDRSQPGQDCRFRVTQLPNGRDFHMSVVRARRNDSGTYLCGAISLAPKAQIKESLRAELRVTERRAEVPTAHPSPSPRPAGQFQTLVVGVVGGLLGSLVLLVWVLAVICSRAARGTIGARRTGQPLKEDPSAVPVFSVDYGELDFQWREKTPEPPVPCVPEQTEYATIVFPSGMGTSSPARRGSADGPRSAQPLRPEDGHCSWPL

| Compound | IC50 [nM] |
| --- | --- |
| CC(C)C[C@@H]1NC(=O)[C@H](Cc2c[nH]c3ccccc23)NC(=O)[C@H](CC(=O)O)NC(=O)[C@H](Cc2ccc(OCC(=O)O)cc2)NC(=O)[C@H](CCCCNC(=N)N)NC(=O)CSC[C@@H](C(=O)NCC(=O)NCCOCCOCC(=O)N[C@@H](CCCN)C(=O)NCCCCCCCCCCCC(=O)O)NC(=O)[C@H](CO)NC(=O)[C@H](C(C)C)NC(=O)[C@H](CC2CCCCC2)NC(=O)[C@H](CCN)NC(=O)[C@@H](CC(C)C)NC(=O)[C@H](C)N(C)C(=O)[C@H](C(C)C)NC(=O)[C@H](Cc2ccc(-c3ccccc3)cc2)NC1=O [Example 2123] ({CH2CO}-[hArg]Y(Carboxymethyl)DWL[Bip]V[NMeA][dL][Dab][Cha]VSCG[AEEA][Orn][12Ado]-OH; thioether N-14) | 11.6 |
| CC[C@@H]1NC(=O)[C@H](C(C)C)NC(=O)[C@H](CC2CCCCC2)NC(=O)[C@H](CCN)NC(=O)[C@@H](CC(C)C)NC(=O)[C@H](C)N(C)C(=O)[C@H](C(C)C)NC(=O)[C@H](Cc2ccc(-c3ccccc3)cc2)NC(=O)[C@H](CC(C)C)NC(=O)[C@H](Cc2c[nH]c3ccccc23)NC(=O)[C@H](CC(=O)O)NC(=O)[C@H](Cc2ccc(OCC(=O)O)cc2)NC(=O)[C@H](CCCCNC(=N)N)NC(=O)CSC[C@@H](C(=O)NCC(=O)NCCOCCOCC(=O)N[C@@H](CCCN)C(=O)NCCCCCCCCCCCC(=O)O)NC1=O [Example 2124] ({CH2CO}-[hArg]Y(Carboxymethyl)DWL[Bip]V[NMeA][dL][Dab][Cha]V[Abu]CG[AEEA][Orn][12Ado]-OH; thioether N-14) | 17 |
| CC(C)C[C@@H]1NC(=O)[C@H](Cc2c[nH]c3ccccc23)NC(=O)[C@H](CC(=O)O)NC(=O)[C@H](Cc2ccc(C(=O)O)cc2)NC(=O)[C@H](Cc2ccc(OCC(=O)O)cc2)NC(=O)CSC[C@@H](C(=O)N[C@@H](CCCN)C(=O)NCCOCCOCC(=O)NCCCCCCCCCCC(=O)O)NC(=O)[C@H](CC(=O)O)NC(=O)[C@H](C(C)C)NC(=O)[C@H](CC2CCCCC2)NC(=O)[C@H](CCN)NC(=O)[C@@H](CC(C)C)NC(=O)[C@H](C)N(C)C(=O)[C@H](C(C)C)NC(=O)[C@H](Cc2ccc(-c3ccccc3)cc2)NC1=O [Example 2125] ({CH2CO}-Y(Carboxymethyl)[Phe(4-COOH)]DWL[Bip]V[NMeA][dL][Dab][Cha]VDC[Orn][AEEA][Aun]-OH; thioether N-14) | 11.5 |
| CC(C)C[C@@H]1NC(=O)[C@H](Cc2c[nH]c3ccccc23)NC(=O)[C@H](CC(=O)O)NC(=O)[C@H](Cc2ccc(C(=O)O)cc2)NC(=O)[C@H](Cc2ccc(OCC(=O)O)cc2)NC(=O)CSC[C@@H](C(=O)N[C@@H](CCCN)C(=O)NCCOCCOCC(=O)NCCCCCCCCCCC(=O)O)NC(=O)[C@H](CCC(=O)O)NC(=O)[C@H](C(C)C)NC(=O)[C@H](CC2CCCCC2)NC(=O)[C@H](CCN)NC(=O)[C@@H](CC(C)C)NC(=O)[C@H](C)N(C)C(=O)[C@H](C(C)C)NC(=O)[C@H](Cc2ccc(-c3ccccc3)cc2)NC1=O [Example 2126] ({CH2CO}-Y(Carboxymethyl)[Phe(4-COOH)]DWL[Bip]V[NMeA][dL][Dab][Cha]VEC[Orn][AEEA][Aun]-OH; thioether N-14) | 8.4 |
| CC(C)C[C@@H]1NC(=O)[C@H](Cc2c[nH]c3ccccc23)NC(=O)[C@H](CC(=O)O)NC(=O)[C@H](Cc2ccc(C(=O)O)cc2)NC(=O)[C@H](Cc2ccc(OCC(=O)O)cc2)NC(=O)CSC[C@@H](C(=O)N[C@@H](CCN)C(=O)NCCOCCOCC(=O)NCCCCCCCCCCC(=O)O)NC(=O)[C@H](CCCNC(N)=O)NC(=O)[C@H](C(C)C)NC(=O)[C@H](CC2CCCCC2)NC(=O)[C@H](CCN)NC(=O)[C@@H](CC(C)C)NC(=O)[C@H](C)N(C)C(=O)[C@H](C(C)C)NC(=O)[C@H](Cc2ccc(-c3ccccc3)cc2)NC1=O [Example 2127] ({CH2CO}-Y(Carboxymethyl)[Phe(4-COOH)]DWL[Bip]V[NMeA][dL][Dab][Cha]V[Cit]C[Dab][AEEA][Aun]-OH; thioether N-14) | 10.4 |
| CC(C)C[C@@H]1NC(=O)[C@H](Cc2c[nH]c3ccccc23)NC(=O)[C@H](CC(=O)O)NC(=O)[C@H](Cc2ccc(C(=O)O)cc2)NC(=O)[C@H](Cc2ccc(OCC(=O)O)cc2)NC(=O)CSC[C@@H](C(=O)N[C@@H](CCCN)C(=O)NCCOCCOCC(=O)NCCCCCCCCCCC(=O)O)NC(=O)[C@H](CCCCC(N)=O)NC(=O)[C@H](C(C)C)NC(=O)[C@H](CC2CCCCC2)NC(=O)[C@H](CCN)NC(=O)[C@@H](CC(C)C)NC(=O)[C@H](C)N(C)C(=O)[C@H](C(C)C)NC(=O)[C@H](Cc2ccc(-c3ccccc3)cc2)NC1=O [Example 2128] ({CH2CO}-Y(Carboxymethyl)[Phe(4-COOH)]DWL[Bip]V[NMeA][dL][Dab][Cha]V[hhGln]C[Orn][AEEA][Aun]-OH; thioether N-14) | 8.9 |
| CC(C)C[C@@H]1NC(=O)[C@H](Cc2c[nH]c3ccccc23)NC(=O)[C@H](CC(=O)O)NC(=O)[C@H](Cc2ccc(OCC(=O)O)cc2)NC(=O)[C@H](Cc2ccc(OCC(=O)O)cc2)NC(=O)CSC[C@@H](C(=O)N[C@@H](CCCN)C(=O)NCCOCCOCC(=O)NCCCCCCCCCCC(=O)O)NC(=O)[C@H](CCCCC(N)=O)NC(=O)[C@H](C(C)C)NC(=O)[C@H](CC2CCCCC2)NC(=O)[C@H](CCN)NC(=O)[C@@H](CC(C)C)NC(=O)[C@H](C)N(C)C(=O)[C@H](C(C)C)NC(=O)[C@H](Cc2ccc(-c3ccccc3)cc2)NC1=O [Example 2129] ({CH2CO}-Y(Carboxymethyl)Y(Carboxymethyl)DWL[Bip]V[NMeA][dL][Dab][Cha]V[hhGln]C[Orn][AEEA][Aun]-OH; thioether N-14) | 11.2 |
| CC(C)C[C@@H]1NC(=O)[C@H](Cc2c[nH]c3ccccc23)NC(=O)[C@H](CC(=O)O)NC(=O)[C@H](Cc2ccc(OCC(=O)O)cc2)NC(=O)[C@H](Cc2ccc(OCC(=O)O)cc2)NC(=O)CSC[C@@H](C(=O)N[C@@H](CCCN)C(=O)NCCOCCOCC(=O)NCCCCCCCCCCC(=O)O)NC(=O)[C@H](CO)NC(=O)[C@H](C(C)C)NC(=O)[C@H](CC2CCCCC2)NC(=O)[C@H](CCN)NC(=O)[C@@H](CC(C)C)NC(=O)[C@H](C)N(C)C(=O)[C@H](C(C)C)NC(=O)[C@H](Cc2ccc(-c3ccccc3)cc2)NC1=O [Example 2130] ({CH2CO}-Y(Carboxymethyl)Y(Carboxymethyl)DWL[Bip]V[NMeA][dL][Dab][Cha]VSC[Orn][AEEA][Aun]-OH; thioether N-14) | 11.8 |
| CC(C)C[C@@H]1NC(=O)[C@H](Cc2c[nH]c3ccccc23)NC(=O)[C@H](CC(=O)O)NC(=O)[C@H](Cc2ccc(C(=O)O)cc2)NC(=O)[C@H](Cc2ccc(OCC(=O)O)cc2)NC(=O)CSC[C@@H](C(=O)N[C@@H](CCCN)C(=O)NCCOCCOCC(=O)NCCCCCCCCCCCC(=O)O)NC(=O)[C@H](CO)NC(=O)[C@H](C(C)C)NC(=O)[C@H](CC2CCCCC2)NC(=O)[C@H](CCN)NC(=O)[C@@H](CC(C)C)NC(=O)[C@H](C)N(C)C(=O)[C@H](C(C)C)NC(=O)[C@H](Cc2ccc(-c3ccccc3)cc2)NC1=O [Example 2131] ({CH2CO}-Y(Carboxymethyl)[Phe(4-COOH)]DWL[Bip]V[NMeA][dL][Dab][Cha]VSC[Orn][AEEA][12Ado]-OH; thioether N-14) | 19.1 |
| CC(C)C[C@@H]1NC(=O)[C@H](Cc2c[nH]c3ccccc23)NC(=O)[C@H](CC(=O)O)NC(=O)[C@H](Cc2ccc(C(=O)O)cc2)NC(=O)[C@H](Cc2ccc(OCC(=O)O)cc2)NC(=O)CSC[C@@H](C(=O)N[C@@H](CN)C(=O)NCCOCCOCC(=O)NCCCCCCCCCCC(=O)O)NC(=O)[C@H](CCCNC(N)=O)NC(=O)[C@H](C(C)C)NC(=O)[C@H](CC2CCCCC2)NC(=O)[C@H](CCN)NC(=O)[C@@H](CC(C)C)NC(=O)[C@H](C)N(C)C(=O)[C@H](C(C)C)NC(=O)[C@H](Cc2ccc(-c3ccccc3)cc2)NC1=O [Example 2132] ({CH2CO}-Y(Carboxymethyl)[Phe(4-COOH)]DWL[Bip]V[NMeA][dL][Dab][Cha]V[Cit]C[Dap][AEEA][Aun]-OH; thioether N-14) | 8.2 |
| CC(C)C[C@@H]1NC(=O)[C@H](Cc2c[nH]c3ccccc23)NC(=O)[C@H](CC(=O)O)NC(=O)[C@H](Cc2ccc(C(=O)O)cc2)NC(=O)[C@H](Cc2ccc(OCC(=O)O)cc2)NC(=O)CSC[C@@H](C(=O)N[C@@H](CCCN)C(=O)NCCOCCOCC(=O)NCCCCCCCCCCC(=O)O)NC(=O)[C@H](CO)NC(=O)[C@H](C(C)C)NC(=O)[C@H](CC2CCCCC2)NC(=O)[C@H](CCCCN)NC(=O)[C@@H](CC(C)C)NC(=O)[C@H](C)N(C)C(=O)[C@H](C(C)C)NC(=O)[C@H](Cc2ccc(-c3ccccc3)cc2)NC1=O [Example 2133] ({CH2CO}-Y(Carboxymethyl)[Phe(4-COOH)]DWL[Bip]V[NMeA][dL]K[Cha]VSC[Orn][AEEA][Aun]-OH; thioether N-14) | 23.4 |
| CC(C)C[C@@H]1NC(=O)[C@H](Cc2c[nH]c3ccccc23)NC(=O)[C@H](CC(=O)O)NC(=O)[C@H](Cc2ccc(C(=O)O)cc2)NC(=O)[C@H](Cc2ccc(OCC(=O)O)cc2)NC(=O)CSC[C@@H](C(=O)N[C@@H](CCCN)C(=O)NCCOCCOCC(=O)NCCCCCCCCCCC(=O)O)NC(=O)[C@H](CN)NC(=O)[C@H](C(C)C)NC(=O)[C@H](CC2CCCCC2)NC(=O)[C@H](CCN)NC(=O)[C@@H](CC(C)C)NC(=O)[C@H](C)N(C)C(=O)[C@H](C(C)C)NC(=O)[C@H](Cc2ccc(-c3ccccc3)cc2)NC1=O [Example 2134] ({CH2CO}-Y(Carboxymethyl)[Phe(4-COOH)]DWL[Bip]V[NMeA][dL][Dab][Cha]V[Dap]C[Orn][AEEA][Aun]-OH; thioether N-14) | 32 |
| CC(C)C[C@@H]1NC(=O)[C@H](Cc2c[nH]c3ccccc23)NC(=O)[C@H](CC(=O)O)NC(=O)[C@H](Cc2ccc(C(=O)O)cc2)NC(=O)[C@H](Cc2ccc(OCC(=O)O)cc2)NC(=O)CSC[C@@H](C(=O)N[C@@H](CCCN)C(=O)NCCOCCOCC(=O)NCCCCCCCCCCC(=O)O)NC(=O)[C@H](CCCN)NC(=O)[C@H](C(C)C)NC(=O)[C@H](CC2CCCCC2)NC(=O)[C@H](CCN)NC(=O)[C@@H](CC(C)C)NC(=O)[C@H](C)N(C)C(=O)[C@H](C(C)C)NC(=O)[C@H](Cc2ccc(-c3ccccc3)cc2)NC1=O [Example 2135] ({CH2CO}-Y(Carboxymethyl)[Phe(4-COOH)]DWL[Bip]V[NMeA][dL][Dab][Cha]V[Orn]C[Orn][AEEA][Aun]-OH; thioether N-14) | 13.2 |
